Source: patent publication US20240210412A1, “SULFONYL-TRIAZOLE COMPOUNDS USEFUL AS LIGANDS AND INHIBITORS OF PROSTAGLANDIN REDUCTASE 2” (University of Virginia Patent Foundation, priority 2021, published 2024)

Experiments:
Assay in all cases: SILAC LC-MS ABPP
Settings in all cases: 25 μM 2 h, live DM93 cells
Q6IS14 = format: cell-based, human
Method: (§1) Cells were grown to 90-95% confluence before being washed once with warm, sterile DPBS (1×, 5 mL), followed by addition of 10 mL of serum-free media (supplemented with 1% L-glutamine) containing either DMSO or SuTEx fragment (in DMSO) was added. Light cells were treated with DMSO vehicle while the heavy cells were treated with DMSO or SuTEx fragment (in DMSO) and incubated for 2 hrs. After 2 hrs, the cells were treated with SuTEx alkyne probe (HHS475, 10 μL of 1000× DMSO stock) and incubated for an additional 2 hrs. The media was aspirated and cells washed with cold PBS (5 mL) and harvested. Cells were spun at 500×g for 5 min at 4° C. followed by removal of supernatant. Pellets were resuspended in 1 mL of cold DPBS and spun at 1,400×g for 3 min at 4° C. followed by removal of supernatant. The cells were lysed in PBS by sonication and fractionated (100,000×g, 45 min, 4° C.).The light and heavy soluble fractions were diluted to 2.3 mg/mL in PBS and 432 μL were used for analysis (1 mg total protein). The probe-modified proteomes were conjugated to desthiobiotin-PEG3-azide (10 μl of 10 mM stock in DMSO; 200 μM final concentration) using TCEP (10 μl of fresh 50 mM stock in water, 1 mM final concentration), TBTA ligand (33 μl of a 1.7 mM 4:1 t-butanol/DMSO stock, 100 μM final concentration) and CuSO4 (10 μl of 50 mM stock, 1 mM final concentration). Samples were vortexed to mix and incubated for 1 hr at room temperature. The heavy and light proteomes were mixed 1:1 and the subsequent steps, including LC-MS/MS data analysis, were performed as previously described^[8a].
(§2) Coupling cell-based screens with chemical proteomics can facilitate the identification of target protein and binding sites that engage and are irreversibly modified by covalent ligands^[12]. In these assays, covalent ligands block SuTEx activity-based probe (ABP) labeling at protein sites, and the competition of probe labeling can be used to quantify potency and selectivity across the proteome^[10a]. To facilitate quantitative chemical proteomics, DM93 melanoma cells were cultured using stable isotopic labeling by amino acids in cell culture (SILAC)^[13]. Cells cultured in “light” media were treated with dimethyl sulfoxide (DMSO) vehicle while cells cultured in “heavy” media were treated with SuTEx ligand (25 μM, 2 hours, 37° C.). Next, cells were treated with HHS-475 probe (100 μM, 2 hours, 37° C.) followed by lysis and processing of proteomes for analysis. Probe-modified proteins from the soluble fraction were conjugated to a desthiobiotin-azide tag by copper-catalyzed azide-alkyne cycloaddition (CuAAC)^[14] followed by mixing of the light and heavy proteomes. The combined proteomes were digested with trypsin protease to produce probe-modified peptides, followed by enrichment and purification by avidin affinity chromatography. Probe-modified peptides were resolved, identified, and quantified by high-resolution liquid chromatography-tandem mass spectrometry (LC-MS/MS). Resultant data were analyzed as previously described^[8a, 10a]. Table 2, below, lists sites of modification targeted by sulfonyl-triazole compounds HHS-0101, HHS-0201, HHS-0301, HHS-0401, and HHS-0701. The format of the table is as follows: protein Uniprot accession number (see uniprot.org); tyrosine site (amino acid position) modified; treatment (sulfonyl-triazole compound identification number, followed by Y (where if multiple compounds modify the same site, the compounds are separated by vertical lines).

Q9Y5K6 = biological target: T1, Q9Y5K6 (Homo sapiens, UniProt Q9Y5K6); format: cell-based
T1 construct: endogenous in cells; host or cells: DM93 cells (SILAC)
Summary of the method: (§3)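 DM93 melanoma cells under SILAC: light treated with DMSO, heavy with SuTEx ligand (25 μM, 2 h, 37 °C) in serum-free medium, then HHS-475 alkyne probe (100 μM, 2 h, 37 °C). Soluble proteomes clicked to desthiobiotin-PEG3-azide by CuAAC, mixed 1:1, trypsinised, avidin-enriched; probe-modified tyrosine peptides quantified by LC-MS/MS.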

O95757 = biological target: T2, O95757 (Homo sapiens, UniProt O95757); format: cell-based
T2 construct: endogenous in cells; host or cells: DM93 cells (SILAC)
Summary of the method: as §3

Q92900 = biological target: T3, Q92900 (Homo sapiens, UniProt Q92900); format: cell-based
T3 construct: endogenous in cells; host or cells: DM93 cells (SILAC), live-cell treatment
Summary of the method: as §3

P63241 = biological target: T4, P63241 (Homo sapiens, UniProt P63241); format: cell-based
T4 construct: performing SuTEx compound screening directly in cells; endogenous in cells; host or cells: DM93 cells (SILAC)
Summary of the method: as §3

Q9BWD1 = biological target: T5, Q9BWD1 (Homo sapiens, UniProt Q9BWD1); format: cell-based
T5 construct: endogenous in cells; host or cells: DM93 cells (SILAC), treated live; soluble proteome analysed
Summary of the method: as §3

P26599 = biological target: T6, P26599 (Homo sapiens, UniProt P26599); format: cell-based
T6 construct: endogenous in cells; host or cells: DM93 (SILAC)
Summary of the method: as §3

P62847 = biological target: T7, P62847 (Homo sapiens, UniProt P62847); format: cell-based
T7 construct: performing SuTEx compound screening directly in cells; endogenous in cells; host or cells: DM93 cells (SILAC)
Summary of the method: as §3

Q9UI12 = biological target: T8, Q9UI12 (Homo sapiens, UniProt Q9UI12); format: cell-based
T8 construct: endogenous in cells; host or cells: DM93 cells (SILAC)
Summary of the method: as §3

Q9P2E9 = biological target: T9, Q9P2E9 (Homo sapiens, UniProt Q9P2E9); format: cell-based
T9 construct: endogenous in cells; host or cells: DM93 cells (SILAC)
Summary of the method: as §3

Q13057 = biological target: T10, Q13057 (Homo sapiens, UniProt Q13057); format: cell-based
T10 construct: performing SuTEx compound screening directly in cells; endogenous in cells; host or cells: DM93 cells (SILAC), soluble fraction
Summary of the method: as §3

P15880 = biological target: T11, P15880 (Homo sapiens, UniProt P15880); format: cell-based
T11 construct: endogenous in cells; host or cells: DM93 cells (SILAC)
Summary of the method: as §3

O14578 = biological target: T12, O14578 (Homo sapiens, UniProt O14578); format: cell-based
T12 construct: endogenous in cells; host or cells: DM93
Summary of the method: as §3

P49585 = biological target: T13, P49585 (Homo sapiens, UniProt P49585); format: cell-based
T13 construct: endogenous in cells; host or cells: DM93 cells (SILAC)
Summary of the method: as §3

Q9BTC8 = biological target: T14, Q9BTC8 (Homo sapiens, UniProt Q9BTC8); format: cell-based
T14 construct: endogenous in cells; host or cells: DM93 cells (SILAC), treated live; soluble proteome analysed
Summary of the method: as §3

Q8N0Y7 = format: cell-based, human
Method: as §1, §2

Q15154 = biological target: T15, Q15154 (Homo sapiens, UniProt Q15154); format: cell-based
T15 construct: performing SuTEx compound screening directly in cells; endogenous in cells; host or cells: DM93 cells (SILAC), soluble fraction
Summary of the method: as §3

O43823 = biological target: T16, O43823 (Homo sapiens, UniProt O43823); format: cell-based
T16 construct: endogenous in cells; host or cells: DM93
Summary of the method: as §3

Q92734 = biological target: T17, Q92734 (Homo sapiens, UniProt Q92734); format: cell-based
T17 construct: endogenous in cells; host or cells: DM93 cells (SILAC), live-cell treatment
Summary of the method: as §3

T3 sequence (Q92900 whole entry): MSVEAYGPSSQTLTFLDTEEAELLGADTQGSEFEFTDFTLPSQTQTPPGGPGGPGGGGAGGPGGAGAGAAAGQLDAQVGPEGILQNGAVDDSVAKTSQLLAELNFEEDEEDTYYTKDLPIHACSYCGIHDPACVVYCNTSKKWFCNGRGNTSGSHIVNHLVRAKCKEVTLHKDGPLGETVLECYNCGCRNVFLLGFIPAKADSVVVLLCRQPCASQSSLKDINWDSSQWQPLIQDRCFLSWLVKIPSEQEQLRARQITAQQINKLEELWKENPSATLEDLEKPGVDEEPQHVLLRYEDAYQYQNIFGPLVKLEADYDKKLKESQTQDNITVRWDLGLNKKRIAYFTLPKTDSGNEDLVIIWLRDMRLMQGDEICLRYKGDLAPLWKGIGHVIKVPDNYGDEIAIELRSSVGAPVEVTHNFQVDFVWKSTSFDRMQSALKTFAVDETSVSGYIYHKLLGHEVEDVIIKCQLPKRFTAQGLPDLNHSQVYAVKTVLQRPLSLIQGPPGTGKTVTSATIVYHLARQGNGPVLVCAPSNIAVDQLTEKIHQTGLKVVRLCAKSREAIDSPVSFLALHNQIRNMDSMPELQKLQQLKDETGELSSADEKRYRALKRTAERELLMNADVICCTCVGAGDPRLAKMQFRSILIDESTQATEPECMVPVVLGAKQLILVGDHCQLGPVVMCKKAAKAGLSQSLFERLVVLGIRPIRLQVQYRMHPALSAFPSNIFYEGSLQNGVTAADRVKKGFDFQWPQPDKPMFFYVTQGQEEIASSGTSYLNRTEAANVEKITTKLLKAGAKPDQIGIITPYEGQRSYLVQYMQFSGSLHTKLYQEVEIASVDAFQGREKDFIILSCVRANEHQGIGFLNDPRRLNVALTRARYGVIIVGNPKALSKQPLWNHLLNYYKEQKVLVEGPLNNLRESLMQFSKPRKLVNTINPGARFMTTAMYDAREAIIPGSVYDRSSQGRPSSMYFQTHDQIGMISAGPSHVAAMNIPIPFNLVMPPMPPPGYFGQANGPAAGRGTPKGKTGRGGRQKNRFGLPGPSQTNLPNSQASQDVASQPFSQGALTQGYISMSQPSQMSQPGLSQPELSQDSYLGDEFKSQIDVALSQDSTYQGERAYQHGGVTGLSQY
T17 sequence (Q92734 whole entry): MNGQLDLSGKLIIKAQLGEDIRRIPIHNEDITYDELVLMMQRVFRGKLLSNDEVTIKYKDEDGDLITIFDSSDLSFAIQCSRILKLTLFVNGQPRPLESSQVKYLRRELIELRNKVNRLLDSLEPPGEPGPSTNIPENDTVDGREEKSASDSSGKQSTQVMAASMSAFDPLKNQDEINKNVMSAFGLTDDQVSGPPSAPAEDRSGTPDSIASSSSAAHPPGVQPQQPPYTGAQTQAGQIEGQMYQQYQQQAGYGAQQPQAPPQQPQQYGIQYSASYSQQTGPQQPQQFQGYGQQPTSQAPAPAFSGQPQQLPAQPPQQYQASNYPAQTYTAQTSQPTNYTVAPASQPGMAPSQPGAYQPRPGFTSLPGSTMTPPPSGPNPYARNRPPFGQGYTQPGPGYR
T9 sequence (Q9P2E9 whole entry): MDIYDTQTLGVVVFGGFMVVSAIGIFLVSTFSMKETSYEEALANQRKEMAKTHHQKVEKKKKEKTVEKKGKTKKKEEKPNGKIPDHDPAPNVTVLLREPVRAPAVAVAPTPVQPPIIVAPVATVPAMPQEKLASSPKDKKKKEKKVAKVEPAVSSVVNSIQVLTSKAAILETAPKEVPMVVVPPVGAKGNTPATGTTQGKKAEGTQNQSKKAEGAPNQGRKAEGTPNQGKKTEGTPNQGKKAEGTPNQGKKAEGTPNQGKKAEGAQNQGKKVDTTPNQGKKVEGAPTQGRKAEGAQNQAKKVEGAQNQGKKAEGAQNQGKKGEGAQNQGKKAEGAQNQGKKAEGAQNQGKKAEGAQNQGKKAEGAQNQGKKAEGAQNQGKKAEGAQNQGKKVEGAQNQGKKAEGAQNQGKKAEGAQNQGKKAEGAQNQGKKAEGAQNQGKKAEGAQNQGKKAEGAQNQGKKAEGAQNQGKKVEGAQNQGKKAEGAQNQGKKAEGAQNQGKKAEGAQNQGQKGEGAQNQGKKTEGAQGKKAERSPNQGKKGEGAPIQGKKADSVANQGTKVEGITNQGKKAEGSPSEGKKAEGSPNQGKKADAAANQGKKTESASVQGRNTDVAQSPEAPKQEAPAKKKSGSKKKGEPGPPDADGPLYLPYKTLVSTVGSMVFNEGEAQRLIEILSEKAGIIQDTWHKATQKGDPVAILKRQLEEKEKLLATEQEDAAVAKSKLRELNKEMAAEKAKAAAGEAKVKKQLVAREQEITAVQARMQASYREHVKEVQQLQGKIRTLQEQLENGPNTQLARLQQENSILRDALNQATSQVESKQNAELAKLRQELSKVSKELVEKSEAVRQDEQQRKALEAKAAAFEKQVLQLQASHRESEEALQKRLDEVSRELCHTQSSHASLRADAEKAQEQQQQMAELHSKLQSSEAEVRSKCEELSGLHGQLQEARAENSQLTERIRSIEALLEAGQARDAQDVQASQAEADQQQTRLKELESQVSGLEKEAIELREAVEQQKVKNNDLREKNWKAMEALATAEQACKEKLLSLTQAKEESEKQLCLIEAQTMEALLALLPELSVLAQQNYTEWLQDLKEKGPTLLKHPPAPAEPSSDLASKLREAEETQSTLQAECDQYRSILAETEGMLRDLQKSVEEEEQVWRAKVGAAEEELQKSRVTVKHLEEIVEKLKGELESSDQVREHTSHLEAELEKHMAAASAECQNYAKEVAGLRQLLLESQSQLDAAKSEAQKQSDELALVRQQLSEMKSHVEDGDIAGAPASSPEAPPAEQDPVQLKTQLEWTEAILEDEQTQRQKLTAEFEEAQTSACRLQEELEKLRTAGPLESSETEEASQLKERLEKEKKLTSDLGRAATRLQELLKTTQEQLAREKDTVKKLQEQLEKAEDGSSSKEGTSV
T13 sequence (P49585 whole entry): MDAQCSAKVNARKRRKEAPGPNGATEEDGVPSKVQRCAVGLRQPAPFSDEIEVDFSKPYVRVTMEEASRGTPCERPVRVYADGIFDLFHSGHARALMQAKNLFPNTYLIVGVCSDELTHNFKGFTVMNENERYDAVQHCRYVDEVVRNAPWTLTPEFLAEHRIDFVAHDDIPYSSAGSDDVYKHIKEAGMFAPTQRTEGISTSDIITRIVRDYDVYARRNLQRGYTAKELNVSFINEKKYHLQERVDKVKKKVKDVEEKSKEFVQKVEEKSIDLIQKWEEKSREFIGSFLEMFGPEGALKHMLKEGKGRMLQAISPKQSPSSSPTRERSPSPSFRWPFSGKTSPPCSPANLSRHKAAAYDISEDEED
T8 sequence (Q9UI12 whole entry): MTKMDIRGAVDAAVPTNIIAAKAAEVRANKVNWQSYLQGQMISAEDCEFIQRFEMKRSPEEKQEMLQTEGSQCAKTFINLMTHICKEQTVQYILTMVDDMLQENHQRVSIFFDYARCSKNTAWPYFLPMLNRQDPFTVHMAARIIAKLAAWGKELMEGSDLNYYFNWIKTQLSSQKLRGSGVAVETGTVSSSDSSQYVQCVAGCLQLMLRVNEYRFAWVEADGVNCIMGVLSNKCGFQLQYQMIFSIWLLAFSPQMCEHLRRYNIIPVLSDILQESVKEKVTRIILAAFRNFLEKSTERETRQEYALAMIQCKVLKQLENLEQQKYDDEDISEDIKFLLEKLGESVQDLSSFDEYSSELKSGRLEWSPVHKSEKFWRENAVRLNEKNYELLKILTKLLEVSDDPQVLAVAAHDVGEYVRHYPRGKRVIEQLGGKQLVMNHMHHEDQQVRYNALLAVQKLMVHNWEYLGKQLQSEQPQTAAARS
T14 sequence (Q9BTC8 whole entry): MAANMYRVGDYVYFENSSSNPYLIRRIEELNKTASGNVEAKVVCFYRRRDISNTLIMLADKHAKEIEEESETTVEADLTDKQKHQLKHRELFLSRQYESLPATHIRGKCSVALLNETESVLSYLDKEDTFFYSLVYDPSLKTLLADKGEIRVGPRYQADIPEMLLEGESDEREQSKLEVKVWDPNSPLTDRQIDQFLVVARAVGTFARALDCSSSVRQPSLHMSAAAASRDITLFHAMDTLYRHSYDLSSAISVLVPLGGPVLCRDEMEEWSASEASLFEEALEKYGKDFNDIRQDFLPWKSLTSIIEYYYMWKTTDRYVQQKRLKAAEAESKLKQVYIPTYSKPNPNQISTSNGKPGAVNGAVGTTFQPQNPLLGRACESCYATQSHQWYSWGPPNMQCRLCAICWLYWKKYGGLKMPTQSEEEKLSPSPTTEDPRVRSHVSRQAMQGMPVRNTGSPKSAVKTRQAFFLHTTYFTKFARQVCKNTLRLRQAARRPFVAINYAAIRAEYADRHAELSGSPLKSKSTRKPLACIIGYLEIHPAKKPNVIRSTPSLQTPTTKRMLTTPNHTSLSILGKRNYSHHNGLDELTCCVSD
T16 sequence (O43823 whole entry): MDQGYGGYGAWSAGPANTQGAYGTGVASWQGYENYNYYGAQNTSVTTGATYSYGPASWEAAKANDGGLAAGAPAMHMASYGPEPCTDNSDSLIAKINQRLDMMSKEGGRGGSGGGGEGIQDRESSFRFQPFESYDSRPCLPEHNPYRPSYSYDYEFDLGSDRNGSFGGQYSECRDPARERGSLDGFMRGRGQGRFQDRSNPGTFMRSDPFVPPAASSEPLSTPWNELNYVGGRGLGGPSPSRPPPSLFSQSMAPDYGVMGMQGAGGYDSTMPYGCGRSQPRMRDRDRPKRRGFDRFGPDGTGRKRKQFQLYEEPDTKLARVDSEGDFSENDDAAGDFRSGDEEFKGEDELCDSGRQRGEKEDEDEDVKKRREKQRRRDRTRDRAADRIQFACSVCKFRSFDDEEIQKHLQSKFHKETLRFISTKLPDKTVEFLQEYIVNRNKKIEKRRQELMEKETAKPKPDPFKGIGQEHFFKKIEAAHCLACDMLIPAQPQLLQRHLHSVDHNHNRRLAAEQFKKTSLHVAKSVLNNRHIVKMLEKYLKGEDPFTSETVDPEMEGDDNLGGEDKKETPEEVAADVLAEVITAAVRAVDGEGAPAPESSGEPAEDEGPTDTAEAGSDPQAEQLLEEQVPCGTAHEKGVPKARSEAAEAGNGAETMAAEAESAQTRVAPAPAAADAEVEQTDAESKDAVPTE

O=C(NC1CC1)c1ccc(S(=O)(=O)n2cncn2)cc1 [HHS-0101, 4-((1H-1,2,4-triazol-1-yl)sulfonyl)-N-cyclopropylbenzamide]
liganded tyrosine site 127 (Q6IS14): HHS0101.Y|HHS0201.Y|HHS0701.Y (tyrosine sites that showed >80% reductions (SR >5) in probe labeling in cells treated with compounds (liganded sites))
liganded tyrosine site 361 (Q9Y5K6): HHS0101.Y|HHS0201.Y|HHS0401.Y (tyrosine sites that showed >80% reductions (SR >5) in probe labeling in cells treated with compounds (liganded sites))
liganded tyrosine site 639 (O95757): HHS0101.Y|HHS0301.Y|HHS0401.Y (tyrosine sites that showed >80% reductions (SR >5) in probe labeling in cells treated with compounds (liganded sites))
liganded tyrosine site 518 (Q92900): HHS0101.Y|HHS0201.Y|HHS0401.Y|HHS0701.Y (tyrosine sites that showed >80% reductions (SR >5) in probe labeling in cells treated with compounds (liganded sites))
liganded tyrosine site 946 (Q92900): HHS0101.Y (tyrosine sites that showed >80% reductions (SR >5) in probe labeling in cells treated with compounds (liganded sites))
liganded tyrosine site 127 (P63241): HHS0101.Y|HHS0201.Y|HHS0701.Y (tyrosine sites that showed >80% reductions (SR >5) in probe labeling in cells treated with compounds (liganded sites))
liganded tyrosine site 237 (Q9BWD1): HHS0101.Y|HHS0201.Y|HHS0301.Y|HHS0401.Y (tyrosine sites that showed >80% reductions (SR >5) in probe labeling in cells treated with compounds (liganded sites))
liganded tyrosine site 430 (P26599): HHS0101.Y|HHS0201.Y|HHS0401.Y (tyrosine sites that showed >80% reductions (SR >5) in probe labeling in cells treated with compounds (liganded sites))

O=C(NCC1CC1)c1ccc(S(=O)(=O)n2cncn2)cc1 [HHS-0201, 4-((1H-1,2,4-triazol-1-yl)sulfonyl)-N-(cyclopropylmethyl)benzamide]
liganded tyrosine site 81 (P62847): HHS0201.Y (tyrosine sites that showed >80% reductions (SR >5) in probe labeling in cells treated with compounds (liganded sites))
liganded tyrosine site 163 (Q9UI12): HHS0201.Y|HHS0301.Y (tyrosine sites that showed >80% reductions (SR >5) in probe labeling in cells treated with compounds (liganded sites))

O=C(NC1CCCCC1)c1ccc(S(=O)(=O)n2cncn2)cc1 [HHS-0301, 4-((1H-1,2,4-triazol-1-yl)sulfonyl)-N-cyclohexylbenzamide]
liganded tyrosine site 647 (Q9P2E9): HHS0301.Y (tyrosine sites that showed >80% reductions (SR >5) in probe labeling in cells treated with compounds (liganded sites))
liganded tyrosine site 126 (Q13057): HHS0301.Y (tyrosine sites that showed >80% reductions (SR >5) in probe labeling in cells treated with compounds (liganded sites))
liganded tyrosine site 250 (P15880): HHS0301.Y (tyrosine sites that showed >80% reductions (SR >5) in probe labeling in cells treated with compounds (liganded sites))
liganded tyrosine site 818 (O14578): HHS0301.Y (tyrosine sites that showed >80% reductions (SR >5) in probe labeling in cells treated with compounds (liganded sites))
liganded tyrosine site 173 (P49585): HHS0301.Y (tyrosine sites that showed >80% reductions (SR >5) in probe labeling in cells treated with compounds (liganded sites))
liganded tyrosine site 22 (Q9BTC8): HHS0301.Y (tyrosine sites that showed >80% reductions (SR >5) in probe labeling in cells treated with compounds (liganded sites))

O=C(NCc1ccccc1)c1ccc(S(=O)(=O)n2cncn2)cc1 [HHS-0401, 4-((1H-1,2,4-triazol-1-yl)sulfonyl)-N-benzylbenzamide]
liganded tyrosine site 119 (Q8N0Y7): HHS0401.Y (tyrosine sites that showed >80% reductions (SR >5) in probe labeling in cells treated with compounds (liganded sites))
liganded tyrosine site 1424 (Q15154): HHS0401.Y|HHS0701.Y (tyrosine sites that showed >80% reductions (SR >5) in probe labeling in cells treated with compounds (liganded sites))
liganded tyrosine site 436 (O43823): HHS0401.Y (tyrosine sites that showed >80% reductions (SR >5) in probe labeling in cells treated with compounds (liganded sites))

O=C(c1ccc(S(=O)(=O)n2cncn2)cc1)N1CCC(c2ccccc2)CC1 [HHS-0701, (4-((1H-1,2,4-triazol-1-yl)sulfonyl)phenyl)(4-phenylpiperidin-1-yl)methanone]
liganded tyrosine site 392 (Q92734): HHS0701.Y (tyrosine sites that showed >80% reductions (SR >5) in probe labeling in cells treated with compounds (liganded sites))
